Columns and labels:
[1] = target: BMP-2-inducible protein kinase (Homo sapiens, UniProt Q9NSY1); experiment: BIKE(BM2KLGY1) Takeda global kinase panel
[2] = target: Casein kinase I isoform alpha-like (Homo sapiens, UniProt Q8N752); experiment: CK1alpha2(C1ALLGI5) Takeda global kinase panel
Ephrin type-A receptor 5 = Ephrin type-A receptor 5 (Homo sapiens, UniProt P54756); experiment: EphA5(EPA5MGF1) Takeda global kinase panel
[3] = target: Delta-type opioid receptor (Homo sapiens) (UniProt P41143); conditions: Compound concentration 10.0 uM
[4] = target: Sigma non-opioid intracellular receptor 1 (Homo sapiens) (UniProt Q99720); experiment: Sigma 1 Eurofins-Panlabs radioligand binding assay; design: ligand concentration 15 nM; conditions: Compound concentration 10.0 uM
[5] = target: cAMP-dependent protein kinase catalytic subunit gamma (Homo sapiens, UniProt P22612); experiment: PKAgamma(PRCGLGY1) Takeda global kinase panel
[6] = target: Calcium/calmodulin-dependent protein kinase type 1B (Homo sapiens, UniProt Q6P2M8); experiment: CaMK1beta(PNCKLGRI) Takeda global kinase panel
[7] = target: Delta-type opioid receptor (Homo sapiens) (UniProt P41143); conditions: Compound concentration 10.0 uM; remark: listed apart in the source
[8] = target: Serine/threonine-protein kinase 33 (Homo sapiens, UniProt Q9BYT3); experiment: STK33(ST33LGF1) Takeda global kinase panel
[9] = target: Cell division cycle 7-related protein kinase (Homo sapiens, UniProt O00311); experiment: CDC7(CDC7CGP1) Takeda global kinase panel
Myotonin-protein kinase = Myotonin-protein kinase (Homo sapiens, UniProt Q09013); experiment: DMPK(DMPKLGF1) Takeda global kinase panel
[10] = target: 5-hydroxytryptamine receptor 2B (Homo sapiens) (UniProt P41595); conditions: Compound concentration 10.0 uM
[11] = target: STE20-like serine/threonine-protein kinase (Homo sapiens, UniProt Q9H2G2); experiment: SLK(SLK1LGRJ) Takeda global kinase panel
[12] = target: Adenosine receptor A3 (Homo sapiens) (UniProt P0DMS8); conditions: Compound concentration 10.0 uM
[13] = target: Tyrosine-protein kinase Mer (Homo sapiens, UniProt Q12866); experiment: Mer(MERTLGF1) Takeda global kinase panel
[14] = target: Adenosine receptor A2a (Homo sapiens) (UniProt P29274); conditions: Compound concentration 10.0 uM
[15] = target: Mitogen-activated protein kinase kinase kinase 7 (Homo sapiens, UniProt O43318); experiment: TAK1(M3K7CHY1) Takeda global kinase panel
Ephrin type-A receptor 7 = Ephrin type-A receptor 7 (Homo sapiens, UniProt Q15375); experiment: EphA7(EPA7LGF1) Takeda global kinase panel
[16] = target: Serine/threonine-protein kinase ULK3 (Homo sapiens, UniProt Q6PHR2); experiment: ULK3(ULK3LGF1) Takeda global kinase panel
[17] = target: Cyclin-dependent kinase 4 (Homo sapiens, UniProt P11802); experiment: CDK4(CDK4CGS1) Takeda global kinase panel
Myosin-IIIb = Myosin-IIIb (Homo sapiens, UniProt Q8WXR4); experiment: MYO3B(MY3BLGA1) Takeda global kinase panel
[18] = target: Serine/threonine-protein kinase 32C (Homo sapiens, UniProt Q86UX6); experiment: YANK3(S32CLGI1) Takeda global kinase panel
[19] = target: Bone morphogenetic protein receptor type-1B (Homo sapiens, UniProt O00238); experiment: BMPR1B(BM1BLGF1) Takeda global kinase panel
Ephrin type-B receptor 1 = Ephrin type-B receptor 1 (Homo sapiens, UniProt P54762); experiment: EphB1(EPB1LGY1) Takeda global kinase panel
[20] = target: Interferon-induced, double-stranded RNA-activated protein kinase (Homo sapiens, UniProt P19525); experiment: PKR(EIK2LGY1) Takeda global kinase panel
[21] = target: Wee1-like protein kinase 2 (Homo sapiens, UniProt P0C1S8); experiment: Wee1B(WE1BLGF1) Takeda global kinase panel
Oryctolagus cuniculus = organism: Oryctolagus cuniculus; conditions: Compound concentration 10.0 uM
[22] = target: Inhibitor of nuclear factor kappa-B kinase subunit epsilon (Homo sapiens, UniProt Q14164); experiment: IKKepsilon(IKBELGY1) Takeda global kinase panel
Activin receptor type-2A = Activin receptor type-2A (Homo sapiens, UniProt P27037); experiment: ACtR2(AC2ALGE1) Takeda global kinase panel
[23] = target: cAMP-dependent protein kinase catalytic subunit beta (Homo sapiens, UniProt P22694); experiment: PKAbeta(PRCBLGF1) Takeda global kinase panel
[24] = target: 3-phosphoinositide-dependent protein kinase 1 (Homo sapiens, UniProt O15530); experiment: PDK1(PDP1LGA1) Takeda global kinase panel
Ephrin type-A receptor 3 = Ephrin type-A receptor 3 (Homo sapiens, UniProt P29320); experiment: EphA3(EPA3LGD5) Takeda global kinase panel
[25] = target: Serine/threonine-protein kinase TBK1 (Homo sapiens, UniProt Q9UHD2); experiment: TBK1(TBK1CGF1) Takeda global kinase panel
[26] = target: Cyclin-dependent kinase 13 (Homo sapiens, UniProt Q14004); experiment: CHED(CD13PHS1) Takeda global kinase panel
[27] = target: Interleukin-1 receptor-associated kinase 4 (Homo sapiens, UniProt Q9NWZ3); experiment: IRAK4(IRK4LGF1) Takeda global kinase panel
[28] = target: voltage-gated sodium channel, site 2 (Rattus norvegicus, UniProt F1LQQ7+O08562+O88420+O88457+P04774+P04775+P08104+P15389+P15390+Q62968); experiment: Inhibition of Sodium Channel, Site 2 at 10 µM in the Eurofins-Panlabs radioligand binding assay (Eurofins_assay_279510); type: protein assay; design: ligand concentration 5 nM, non-specific ligand with concentration 100 µM Veratridine, incubation time 60 min, incubation temperature 37 °C; conditions: male, Wistar, rat whole brain (except cerebellum) membranes, probe [3H] Batrachotoxinin, compound concentration 10 uM
[29] = target: Serine/threonine-protein kinase MARK1 (Homo sapiens, UniProt Q9P0L2); experiment: MARK1(MAR1PHY1) Takeda global kinase panel
[30] = target: Tyrosine-protein kinase Fgr (Homo sapiens, UniProt P09769); experiment: Fgr(FGR1LGF1) Takeda global kinase panel
[31] = target: cAMP-dependent protein kinase catalytic subunit PRKX (Homo sapiens, UniProt P51817); experiment: PRKX(PRKXLGH5) Takeda global kinase panel
[32] = target: Serine/threonine-protein kinase LATS2 (Homo sapiens, UniProt Q9NRM7); experiment: LATS2(LAT2LGY1) Takeda global kinase panel
[33] = target: Tyrosine-protein kinase ITK/TSK (Homo sapiens, UniProt Q08881); experiment: ITK(ITK1CGF1) Takeda global kinase panel
[34] = target: Citron Rho-interacting kinase (Homo sapiens, UniProt O14578); experiment: CRIK(CIT1LGY1) Takeda global kinase panel
[35] = target: Serine/threonine-protein kinase TAO3 (Homo sapiens, UniProt Q9H2K8); experiment: TAO3(TAO3LGY1) Takeda global kinase panel
[36] = target: Tyrosine-protein kinase Tec (Homo sapiens, UniProt P42680); experiment: TEC(TEC1CGD1) Takeda global kinase panel
TGF-beta receptor type-2 = TGF-beta receptor type-2 (Homo sapiens, UniProt P37173); experiment: TGFbetaR2(TGF2LGY1) Takeda global kinase panel

Sequence of Delta-type opioid receptor (Homo sapiens) (P41143 whole entry): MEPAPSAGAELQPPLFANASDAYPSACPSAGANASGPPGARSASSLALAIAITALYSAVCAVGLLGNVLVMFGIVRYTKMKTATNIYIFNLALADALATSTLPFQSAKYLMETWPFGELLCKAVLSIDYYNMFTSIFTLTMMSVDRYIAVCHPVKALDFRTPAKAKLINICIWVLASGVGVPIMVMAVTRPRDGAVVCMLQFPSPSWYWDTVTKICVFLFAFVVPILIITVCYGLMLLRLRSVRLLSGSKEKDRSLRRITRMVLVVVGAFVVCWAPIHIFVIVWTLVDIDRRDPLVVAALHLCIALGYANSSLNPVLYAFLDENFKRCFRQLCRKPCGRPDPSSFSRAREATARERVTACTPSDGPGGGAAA
Sequence of Activin receptor type-2A (P27037 whole entry): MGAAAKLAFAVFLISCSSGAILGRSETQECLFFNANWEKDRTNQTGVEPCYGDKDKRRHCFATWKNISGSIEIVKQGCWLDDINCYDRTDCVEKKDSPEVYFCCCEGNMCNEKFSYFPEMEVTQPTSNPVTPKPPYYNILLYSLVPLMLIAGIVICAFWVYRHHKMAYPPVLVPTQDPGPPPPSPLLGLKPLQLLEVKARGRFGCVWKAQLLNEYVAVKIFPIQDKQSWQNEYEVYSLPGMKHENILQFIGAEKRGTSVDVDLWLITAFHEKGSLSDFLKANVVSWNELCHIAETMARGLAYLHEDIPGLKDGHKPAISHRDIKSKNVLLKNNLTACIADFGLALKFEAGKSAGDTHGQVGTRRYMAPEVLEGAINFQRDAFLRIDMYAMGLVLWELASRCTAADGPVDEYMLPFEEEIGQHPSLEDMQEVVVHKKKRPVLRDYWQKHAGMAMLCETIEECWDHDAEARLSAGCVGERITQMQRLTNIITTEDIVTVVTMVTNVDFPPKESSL
Sequence of Serine/threonine-protein kinase 33 (Q9BYT3 whole entry): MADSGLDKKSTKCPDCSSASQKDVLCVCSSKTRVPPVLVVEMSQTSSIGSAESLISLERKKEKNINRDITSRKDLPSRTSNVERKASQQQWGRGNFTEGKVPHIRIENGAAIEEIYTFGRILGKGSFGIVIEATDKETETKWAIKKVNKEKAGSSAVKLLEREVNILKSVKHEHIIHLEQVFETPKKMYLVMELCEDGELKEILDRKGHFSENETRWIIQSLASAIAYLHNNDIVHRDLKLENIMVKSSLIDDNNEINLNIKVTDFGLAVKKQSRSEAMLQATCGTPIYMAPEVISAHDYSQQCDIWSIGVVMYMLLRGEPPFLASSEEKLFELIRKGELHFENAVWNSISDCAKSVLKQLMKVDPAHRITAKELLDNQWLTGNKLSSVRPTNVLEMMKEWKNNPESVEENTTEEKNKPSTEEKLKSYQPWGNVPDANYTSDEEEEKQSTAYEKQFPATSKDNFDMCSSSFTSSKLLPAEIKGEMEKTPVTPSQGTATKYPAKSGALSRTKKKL
Sequence of Inhibitor of nuclear factor kappa-B kinase subunit epsilon (Q14164 whole entry): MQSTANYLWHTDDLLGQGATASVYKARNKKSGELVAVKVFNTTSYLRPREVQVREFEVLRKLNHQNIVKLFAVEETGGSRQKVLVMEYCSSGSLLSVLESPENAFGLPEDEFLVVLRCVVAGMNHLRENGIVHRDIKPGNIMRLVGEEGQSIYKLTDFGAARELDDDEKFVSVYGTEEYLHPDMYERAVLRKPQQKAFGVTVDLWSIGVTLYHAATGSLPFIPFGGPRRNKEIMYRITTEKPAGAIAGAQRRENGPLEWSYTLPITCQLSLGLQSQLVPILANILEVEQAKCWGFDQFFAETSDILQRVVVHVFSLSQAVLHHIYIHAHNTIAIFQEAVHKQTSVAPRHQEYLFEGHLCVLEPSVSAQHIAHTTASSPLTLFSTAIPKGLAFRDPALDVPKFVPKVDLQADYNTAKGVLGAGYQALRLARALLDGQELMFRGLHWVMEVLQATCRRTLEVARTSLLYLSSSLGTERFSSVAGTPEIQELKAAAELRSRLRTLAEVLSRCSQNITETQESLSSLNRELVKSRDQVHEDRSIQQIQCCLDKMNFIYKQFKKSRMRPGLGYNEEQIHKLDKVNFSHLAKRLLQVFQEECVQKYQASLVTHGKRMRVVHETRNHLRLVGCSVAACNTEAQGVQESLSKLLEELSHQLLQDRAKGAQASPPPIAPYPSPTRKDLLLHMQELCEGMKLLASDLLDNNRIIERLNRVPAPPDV
Sequence of Adenosine receptor A2a (Homo sapiens) (P29274 whole entry): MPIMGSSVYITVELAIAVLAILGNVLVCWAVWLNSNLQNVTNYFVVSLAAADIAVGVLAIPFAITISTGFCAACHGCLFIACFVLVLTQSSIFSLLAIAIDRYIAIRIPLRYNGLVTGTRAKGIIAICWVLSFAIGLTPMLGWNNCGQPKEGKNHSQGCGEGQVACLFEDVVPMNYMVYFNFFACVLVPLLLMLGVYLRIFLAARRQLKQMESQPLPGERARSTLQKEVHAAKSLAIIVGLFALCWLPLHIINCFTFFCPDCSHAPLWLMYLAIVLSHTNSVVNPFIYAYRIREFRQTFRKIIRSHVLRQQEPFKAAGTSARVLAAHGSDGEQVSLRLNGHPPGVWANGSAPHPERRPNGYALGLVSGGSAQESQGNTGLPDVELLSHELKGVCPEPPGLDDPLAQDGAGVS
Sequence of Myosin-IIIb (Q8WXR4 whole entry): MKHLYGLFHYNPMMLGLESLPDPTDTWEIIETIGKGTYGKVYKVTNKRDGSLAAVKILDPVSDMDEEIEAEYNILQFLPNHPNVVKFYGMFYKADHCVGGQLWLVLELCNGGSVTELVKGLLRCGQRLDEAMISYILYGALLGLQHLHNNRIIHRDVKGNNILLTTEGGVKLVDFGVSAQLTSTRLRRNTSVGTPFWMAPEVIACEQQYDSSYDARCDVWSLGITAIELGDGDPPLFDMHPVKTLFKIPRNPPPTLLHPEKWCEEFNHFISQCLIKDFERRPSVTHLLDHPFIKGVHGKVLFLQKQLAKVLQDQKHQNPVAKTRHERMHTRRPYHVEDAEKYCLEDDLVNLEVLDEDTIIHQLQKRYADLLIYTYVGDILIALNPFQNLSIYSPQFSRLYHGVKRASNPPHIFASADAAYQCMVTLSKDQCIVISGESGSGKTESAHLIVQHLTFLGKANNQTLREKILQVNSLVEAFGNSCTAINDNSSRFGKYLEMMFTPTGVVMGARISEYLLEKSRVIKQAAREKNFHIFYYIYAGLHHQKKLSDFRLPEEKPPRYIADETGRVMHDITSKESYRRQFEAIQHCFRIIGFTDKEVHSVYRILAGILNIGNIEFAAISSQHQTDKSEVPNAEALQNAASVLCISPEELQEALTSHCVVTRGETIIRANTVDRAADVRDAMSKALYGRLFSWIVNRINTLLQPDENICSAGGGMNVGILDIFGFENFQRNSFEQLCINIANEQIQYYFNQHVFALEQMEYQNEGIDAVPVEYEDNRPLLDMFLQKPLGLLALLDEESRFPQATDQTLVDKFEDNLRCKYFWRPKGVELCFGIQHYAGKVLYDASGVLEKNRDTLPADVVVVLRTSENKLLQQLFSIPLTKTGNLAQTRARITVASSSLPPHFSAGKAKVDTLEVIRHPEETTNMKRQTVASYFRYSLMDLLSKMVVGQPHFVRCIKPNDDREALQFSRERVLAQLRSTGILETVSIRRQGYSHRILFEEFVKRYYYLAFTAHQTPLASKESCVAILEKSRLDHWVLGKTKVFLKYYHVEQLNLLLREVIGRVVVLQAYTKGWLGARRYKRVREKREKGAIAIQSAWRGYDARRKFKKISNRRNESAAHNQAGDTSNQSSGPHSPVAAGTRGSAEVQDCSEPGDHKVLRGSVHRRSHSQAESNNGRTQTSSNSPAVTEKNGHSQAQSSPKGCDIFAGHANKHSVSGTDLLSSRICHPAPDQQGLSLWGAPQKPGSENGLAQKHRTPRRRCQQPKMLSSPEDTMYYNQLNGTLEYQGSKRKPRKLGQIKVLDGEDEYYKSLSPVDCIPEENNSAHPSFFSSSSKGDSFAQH
Sequence of Casein kinase I isoform alpha-like (Q8N752 whole entry, canonical isoform): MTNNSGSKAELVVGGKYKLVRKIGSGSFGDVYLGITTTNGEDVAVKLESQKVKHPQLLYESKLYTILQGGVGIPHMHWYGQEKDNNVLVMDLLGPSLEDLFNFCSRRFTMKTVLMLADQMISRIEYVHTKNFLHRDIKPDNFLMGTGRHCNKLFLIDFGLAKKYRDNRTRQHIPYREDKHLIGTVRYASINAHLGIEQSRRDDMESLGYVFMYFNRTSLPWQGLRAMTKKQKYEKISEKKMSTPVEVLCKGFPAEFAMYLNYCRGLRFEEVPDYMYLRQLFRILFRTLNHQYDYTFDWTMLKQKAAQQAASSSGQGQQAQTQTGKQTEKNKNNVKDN
Sequence of Serine/threonine-protein kinase 32C (Q86UX6 whole entry): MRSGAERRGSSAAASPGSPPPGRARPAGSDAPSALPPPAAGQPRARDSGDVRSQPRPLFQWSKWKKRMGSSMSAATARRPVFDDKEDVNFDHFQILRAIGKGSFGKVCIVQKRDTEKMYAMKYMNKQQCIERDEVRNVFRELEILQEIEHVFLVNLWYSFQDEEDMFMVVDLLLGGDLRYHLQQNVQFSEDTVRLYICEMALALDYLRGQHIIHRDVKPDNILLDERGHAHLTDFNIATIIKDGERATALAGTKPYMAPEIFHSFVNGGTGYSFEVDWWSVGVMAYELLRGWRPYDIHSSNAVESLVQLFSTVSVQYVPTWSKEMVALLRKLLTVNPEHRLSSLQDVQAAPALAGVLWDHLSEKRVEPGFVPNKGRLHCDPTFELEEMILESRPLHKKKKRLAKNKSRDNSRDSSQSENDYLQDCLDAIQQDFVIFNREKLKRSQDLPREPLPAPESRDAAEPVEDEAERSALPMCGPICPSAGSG
Sequence of Sigma non-opioid intracellular receptor 1 (Homo sapiens) (Q99720 whole entry): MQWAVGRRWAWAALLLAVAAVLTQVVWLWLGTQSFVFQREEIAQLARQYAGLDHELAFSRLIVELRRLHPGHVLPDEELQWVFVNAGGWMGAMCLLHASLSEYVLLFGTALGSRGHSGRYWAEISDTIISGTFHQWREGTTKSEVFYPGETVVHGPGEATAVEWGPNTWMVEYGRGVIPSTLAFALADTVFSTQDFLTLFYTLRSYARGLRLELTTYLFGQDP

CN1C(=O)[C@@H](N2CCc3c(nn(Cc4ccccc4)c3Br)C2=O)COc2ccccc21 [TP-030-2]
1000 nM: IC50 [1] | IC50 [2] | IC50 (Ephrin type-A receptor 5) | IC50 [5] | IC50 [6] | IC50 [8] | IC50 [9] | IC50 (Myotonin-protein kinase) | IC50 [11] | IC50 [13] | IC50 [15] | IC50 (Ephrin type-A receptor 7) | IC50 [16] | IC50 [17] | IC50 (Myosin-IIIb) | IC50 [18] | IC50 [19] | IC50 (Ephrin type-B receptor 1) | IC50 [20] | IC50 [21] | IC50 [22] | IC50 (Activin receptor type-2A) | IC50 [23] | IC50 [24] | IC50 (Ephrin type-A receptor 3) | IC50 [25] | IC50 [26] | IC50 [27] | IC50 [29] | IC50 [30] | IC50 [31] | IC50 [32] | IC50 [33] | IC50 [34] | IC50 [35] | IC50 [36] | IC50 (TGF-beta receptor type-2)
active: inhibition [10] 63%
inactive: inhibition [3] 30.1% | inhibition [4] 13% | inhibition [7] 8% | inhibition [12] 33% | inhibition [14] 8% | inhibition (Oryctolagus cuniculus) -4%
42% (not active): inhibition at 60 min, 10 µM [28]

From ChEMBL document CHEMBL4507326, “Data for DCP probe TP-030-2” (2021)
